# Experiments:
# FL5.12/Bcl-2 cells = assay: FL5.12/Bcl-2 cell viability assay; format: cell-based, murine; conditions: ratio of canine platelet EC50 to FL5.12/Bcl-2 EC50
# Source text: FL5.12 is an IL-3 dependent prolymphocytic murine cell line that undergoes apoptosis upon IL-3 withdrawal as a result of the upregulation of pro-apoptotic Bcl-2 proteins such as Bim and Puma. Stable overexpression of anti-apoptotic Bcl-2 protein (FL5.12/Bcl-2) protects against apoptosis induced by IL-3 withdrawal by sequestration of Bim and Puma. […] The ability of compounds to kill FL5.12/Bcl-2 cells upon IL-3 withdrawal is a direct measure of the compounds' ability to inhibit anti-apoptotic Bcl-2 protein function.
# Wild type FL5.12/Bcl-2 overexpressing stable transfectants were cultured in RPMI-1640 supplemented with 2 mM L-glutamine, 10% FBS, 1 mM sodium pyruvate, 2 mM HEPES, 1% penicillin/streptomycin (Invitrogen), 57 μM β-ME, and 10% WEHI-3B conditioned medium (source of IL-3) and maintained at 37° C. containing 5% CO2. 1×10^6 cells/ml were washed 1×PBS and resuspended in medium not supplemented with 10% WEHI-3B for 48 hrs prior to cytotoxicity assays. Cells were then treated for an additional 24 hrs in the presence of various concentrations of the indicated compounds. Cell viability was assessed by CellTitre Glo assay (Promega Corp.) according to the manufacturer's recommendations.
# GST-Bcl-2 = assay: TR-FRET binding assay, Bcl-2; conditions: TR-FRET Ki values
# Outline: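 Compounds serially diluted in DMSO from 50 μM (2× starting concentration, 10% DMSO), mixed with GST-tagged protein, F-Bak peptide probe and Tb-labeled antibody, incubated 3 h at room temperature.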
Compound,Selectivity Ratio (Platelet EC50/FL5.12/Bcl-2 EC50) (FL5.12/Bcl-2 cells),Binding selectivity ratio (Bcl-XL Ki/Bcl-2 Ki) (GST-Bcl-2)
"O=C(NS(=O)(=O)c1ccc(NCCCN2CCCC2)c([N+](=O)[O-])c1)c1ccc(N2CCN(CC3=C(c4ccc(Cl)cc4)CCCCCC3)CC2)cc1Oc1cccc2[nH]ccc12 [Example 142, 4-(4-{[2-(4-chlorophenyl)cyclooct-1-en-1-yl]methyl}piperazin-1-yl)-2-(1H-indol-4-yloxy)-N-({3-nitro-4-[(3-pyrrolidin-1-ylpropyl)amino]phenyl}sulfonyl)benzamide]",>185,27.8
"CN1CCC(Nc2ccc(S(=O)(=O)NC(=O)c3ccc(N4CCN(CC5=C(c6ccc(Cl)cc6)CC(C)(C)OC5)CC4)cc3Oc3cccc4[nH]ccc34)cc2[N+](=O)[O-])CC1 [Example 145, 4-(4-{[4-(4-chlorophenyl)-6,6-dimethyl-5,6-dihydro-2H-pyran-3-yl]methyl}piperazin-1-yl)-2-(1H-indol-4-yloxy)-N-({4-[(1-methylpiperidin-4-yl)amino]-3-nitrophenyl}sulfonyl)benzamide]",730,401
"O=C(NS(=O)(=O)c1ccc(NCC2CCOCC2)c([N+](=O)[O-])c1)c1ccc(N2CCN(Cc3ccccc3-c3ccc(Cl)cc3)CC2)cc1Oc1ccc2c(c1)CCN2 [Example 140, 4-{4-[(4′-chloro-1,1′-biphenyl-2-yl)methyl]piperazin-1-yl}-2-(2,3-dihydro-1H-indol-5-yloxy)-N-({3-nitro-4-[(tetrahydro-2H-pyran-4-ylmethyl)amino]phenyl}sulfonyl)benzamide]",>23,>139.7
"CN1CCN(CCCNc2ccc(S(=O)(=O)NC(=O)c3ccc(N4CCN(CC5=C(c6ccc(Cl)cc6)CC(C)(C)CC5)CC4)cc3Oc3ccc4[nH]ccc4c3)cc2[N+](=O)[O-])CC1 [Example 96, 4-(4-{[2-(4-chlorophenyl)-4,4-dimethylcyclohex-1-en-1-yl]methyl}piperazin-1-yl)-2-(1H-indol-5-yloxy)-N-[(4-{[3-(4-methylpiperazin-1-yl)propyl]amino}-3-nitrophenyl)sulfonyl]benzamide]",2043,186.8
"CN(C)CCCOc1ccc(S(=O)(=O)NC(=O)c2ccc(N3CCN(Cc4ccccc4-c4ccc(Cl)cc4)CC3)cc2Oc2ccccc2)cc1[N+](=O)[O-] [Example 94, 4-{4-[(4′-chloro-1,1′-biphenyl-2-yl)methyl]piperazin-1-yl}-N-({4-[3-(dimethylamino)propoxy]-3-nitrophenyl}sulfonyl)-2-phenoxybenzamide]",590,33.1
"COc1ccc(C2=C(CN3CCN(c4ccc(C(=O)NS(=O)(=O)c5ccc(NCCCN6CCCC6)c([N+](=O)[O-])c5)c(Oc5cccc6[nH]ccc56)c4)CC3)CCC(C)(C)C2)cc1 [Example 68, 2-(1H-indol-4-yloxy)-4-(4-{[2-(4-methoxyphenyl)-4,4-dimethylcyclohex-1-en-1-yl]methyl}piperazin-1-yl)-N-({3-nitro-4-[(3-pyrrolidin-1-ylpropyl)amino]phenyl}sulfonyl)benzamide]",>1144,11.4
"CC1(C)CCC(CN2CCN(c3ccc(C(=O)NS(=O)(=O)c4ccc(NCCCN5CCOCC5)c([N+](=O)[O-])c4)c(Oc4ccc5c(c4)CCCN5)c3)CC2)=C(c2ccc(Cl)cc2)C1 [Example 22, 4-(4-{[2-(4-chlorophenyl)-4,4-dimethylcyclohex-1-en-1-yl]methyl}piperazin-1-yl)-N-({4-[(3-morpholin-4-ylpropyl)amino]-3-nitrophenyl}sulfonyl)-2-(1,2,3,4-tetrahydroquinolin-6-yloxy)benzamide]",>61,20.2
"CN(C)CCOc1ccc(-c2ccc(Cl)cc2)c(CN2CCN(c3ccc(C(=O)NS(=O)(=O)c4ccc(NCCCN5CCCC5)c([N+](=O)[O-])c4)c(Oc4ccc5[nH]ccc5c4)c3)CC2)c1 [Example 135, 4-[4-({4′-chloro-4-[2-(dimethylamino)ethoxy]-1,1′-biphenyl-2-yl}methyl)piperazin-1-yl]-2-(1H-indol-5-yloxy)-N-({3-nitro-4-[(3-pyrrolidin-1-ylpropyl)amino]phenyl}sulfonyl)benzamide]",108,779.9
"CN(C)CCOc1ccc(-c2ccc(Cl)cc2)c(CN2CCN(c3ccc(C(=O)NS(=O)(=O)c4ccc(NCC5CCOCC5)c([N+](=O)[O-])c4)c(Oc4cccc5[nH]ccc45)c3)CC2)c1 [Example 125, 4-[4-({4′-chloro-4-[2-(dimethylamino)ethoxy]-1,1′-biphenyl-2-yl}methyl)piperazin-1-yl]-2-(1H-indol-4-yloxy)-N-({3-nitro-4-[(tetrahydro-2H-pyran-4-ylmethyl)amino]phenyl}sulfonyl)benzamide]",4719,3879
"CN1CCC(CNc2ccc(S(=O)(=O)NC(=O)c3ccc(N4CCN(CC5=C(c6ccc(Cl)cc6)CC(C)(C)CC5)CC4)cc3Oc3cccc4[nH]ccc34)cc2[N+](=O)[O-])CC1 [Example 105, 4-(4-{[2-(4-chlorophenyl)-4,4-dimethylcyclohex-1-en-1-yl]methyl}piperazin-1-yl)-2-(1H-indol-4-yloxy)-N-[(4-{[(1-methylpiperidin-4-yl)methyl]amino}-3-nitrophenyl)sulfonyl]benzamide]",2262,62.7
"CC1(C)CCC(CN2CCN(c3ccc(C(=O)NS(=O)(=O)c4ccc(NCCCN5CCCC5)c([N+](=O)[O-])c4)c(Oc4cccc5[nH]ccc45)c3)CC2)=C(c2cccc(C(F)(F)F)c2)C1 [Example 71, 4-[4-({4,4-dimethyl-2-[3-(trifluoromethyl)phenyl]cyclohex-1-en-1-yl}methyl)piperazin-1-yl]-2-(1H-indol-4-yloxy)-N-({3-nitro-4-[(3-pyrrolidin-1-ylpropyl)amino]phenyl}sulfonyl)benzamide]",>107,>105.9
"CN(C)CCCNc1ccc(S(=O)(=O)NC(=O)c2ccc(N3CCN(CC4=C(c5ccc(Cl)cc5)CC(C)(C)CC4)CC3)cc2Oc2ccc3[nH]ccc3c2)cc1S(=O)(=O)C(F)(F)F [Example 170, 4-(4-{[2-(4-chlorophenyl)-4,4-dimethylcyclohex-1-en-1-yl]methyl}piperazin-1-yl)-N-({4-{[3-(dimethylamino)propyl]amino}-3-[(trifluoromethyl)sulfonyl]phenyl}sulfonyl)-2-(1H-indol-5-yloxy)benzamide]",507,30.2
"CC1(C)CCC(CN2CCN(c3ccc(C(=O)NS(=O)(=O)c4ccc(NCCCN5CCCC5)c([N+](=O)[O-])c4)c(Oc4ccc5[nH]ccc5c4)c3)CC2)=C(c2ccc(Cl)cc2)C1 [Example 97, 4-(4-{[2-(4-chlorophenyl)-4,4-dimethylcyclohex-1-en-1-yl]methyl}piperazin-1-yl)-2-(1H-indol-5-yloxy)-N-({3-nitro-4-[(3-pyrrolidin-1-ylpropyl)amino]phenyl}sulfonyl)benzamide]",1052,96.7
"CN(C)CCOc1ccc(-c2ccc(Cl)cc2)c(CN2CCN(c3ccc(C(=O)NS(=O)(=O)c4ccc(NCC5CCOCC5)c([N+](=O)[O-])c4)c(Oc4ccc5[nH]ccc5c4)c3)CC2)c1 [Example 126, 4-[4-({4′-chloro-4-[2-(dimethylamino)ethoxy]-1,1′-biphenyl-2-yl}methyl)piperazin-1-yl]-2-(1H-indol-5-yloxy)-N-({3-nitro-4-[(tetrahydro-2H-pyran-4-ylmethyl)amino]phenyl}sulfonyl)benzamide]",>1618,13575
"CN1CCC(CNc2ccc(S(=O)(=O)NC(=O)c3ccc(N4CCN(CC5=C(c6ccc(Cl)cc6)CC(C)(C)CC5)CC4)cc3Oc3ccc4[nH]ccc4c3)cc2[N+](=O)[O-])CC1 [Example 104, 4-(4-{[2-(4-chlorophenyl)-4,4-dimethylcyclohex-1-en-1-yl]methyl}piperazin-1-yl)-2-(1H-indol-5-yloxy)-N-[(4-{[(1-methylpiperidin-4-yl)methyl]amino}-3-nitrophenyl)sulfonyl]benzamide]",>2392,637.7
"O=C(NS(=O)(=O)c1ccc(NCCCN2CCCC2)c([N+](=O)[O-])c1)c1ccc(N2CCN(CC3=C(c4ccc(Cl)cc4)CCCCC3)CC2)cc1Oc1cccc2[nH]ccc12 [Example 141, 4-(4-{[2-(4-chlorophenyl)cyclohept-1-en-1-yl]methyl}piperazin-1-yl)-2-(1H-indol-4-yloxy)-N-({3-nitro-4-[(3-pyrrolidin-1-ylpropyl)amino]phenyl}sulfonyl)benzamide]",>661,42.6

# From patent US9125913B2, “Bcl-2-selective apoptosis-inducing agents for the treatment of cancer and immune diseases” (AbbVie Inc., priority 2008, dated 2015)
